Reference: PubChem BioAssay (NCI)
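Dose response: 5 concentrations. Exposure: 48 h. Format: 96-well plates. Endpoint: linear interpolation; highest concentration if not reached. Definition used: TGI = concentration required for complete inhibition of growth.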

Experiments:
Assay in all cases: DTP human tumour cell line panel, 48 h
K-562 leukemia = tested on: K-562 leukemia
MALME-3M melanoma = tested on: MALME-3M melanoma
OVCAR-3 ovarian = tested on: OVCAR-3 ovarian
SR leukemia = tested on: SR leukemia
MDA-MB-435 = tested on: MDA-MB-435
MOLT-4 leukemia = tested on: MOLT-4 leukemia
T-47D breast = tested on: T-47D breast
UACC-62 melanoma = tested on: UACC-62 melanoma
HCC-2998 colon = tested on: HCC-2998 colon
A498 renal = tested on: A498 renal
RPMI-8226 leukemia = tested on: RPMI-8226 leukemia
DU-145 prostate = tested on: DU-145 prostate
SNB-75 CNS = tested on: SNB-75 CNS
UACC-257 melanoma = tested on: UACC-257 melanoma
NCI-H522 lung = tested on: NCI-H522 lung
SF-295 CNS = tested on: SF-295 CNS
ACHN renal = tested on: ACHN renal
RXF 393 renal = tested on: RXF 393 renal
IGROV1 ovarian = tested on: IGROV1 ovarian
MDA-N = tested on: MDA-N
NCI-H460 lung = tested on: NCI-H460 lung
KM12 colon = tested on: KM12 colon
COLO 205 colon = tested on: COLO 205 colon
M14 melanoma = tested on: M14 melanoma
SK-OV-3 ovarian = tested on: SK-OV-3 ovarian
SK-MEL-2 melanoma = tested on: SK-MEL-2 melanoma
SK-MEL-5 melanoma = tested on: SK-MEL-5 melanoma
LOX IMVI melanoma = tested on: LOX IMVI melanoma
SW-620 colon = tested on: SW-620 colon
EKVX NSCLC = tested on: EKVX NSCLC
MDA-MB-231 breast = tested on: MDA-MB-231 breast
PC-3 prostate = tested on: PC-3 prostate
OVCAR-5 ovarian = tested on: OVCAR-5 ovarian
A549 NSCLC = tested on: A549 NSCLC
CCRF-CEM leukemia = tested on: CCRF-CEM leukemia
SK-MEL-28 melanoma = tested on: SK-MEL-28 melanoma
HS 578T breast = tested on: HS 578T breast
NCI-H226 lung = tested on: NCI-H226 lung
NCI-H23 lung = tested on: NCI-H23 lung
786-0 renal = tested on: 786-0 renal
SN12C renal = tested on: SN12C renal
HL-60(TB) leukemia = tested on: HL-60(TB) leukemia
OVCAR-4 ovarian = tested on: OVCAR-4 ovarian
HOP-92 NSCLC = tested on: HOP-92 NSCLC
SF-539 CNS = tested on: SF-539 CNS
NCI/ADR-RES ovarian = tested on: NCI/ADR-RES ovarian
HT29 colon = tested on: HT29 colon
MCF7 breast = tested on: MCF7 breast
U251 CNS = tested on: U251 CNS
HCT-116 colon = tested on: HCT-116 colon
HOP-62 NSCLC = tested on: HOP-62 NSCLC
CAKI-1 renal = tested on: CAKI-1 renal
SF-268 CNS = tested on: SF-268 CNS
TK-10 renal = tested on: TK-10 renal
SNB-19 CNS = tested on: SNB-19 CNS
HCT-15 colon = tested on: HCT-15 colon

O=C1c2scc(-c3ccc(Cl)cc3)c2-n2cccc21 gave a TGI (K-562 leukemia) greater than 100 µM, a TGI (MALME-3M melanoma) greater than 100 µM and a TGI (OVCAR-3 ovarian) greater than 100 µM. It also gave a TGI (SR leukemia) of 13.7 µM, a TGI (MDA-MB-435) greater than 100 µM and a TGI (MOLT-4 leukemia) greater than 100 µM. For the same molecule, the TGI (T-47D breast) was greater than 100 µM, the TGI (UACC-62 melanoma) was greater than 100 µM and the TGI (HCC-2998 colon) was greater than 100 µM. It also gave a TGI (A498 renal) of 2.78 µM, a TGI (RPMI-8226 leukemia) greater than 100 µM and a TGI (DU-145 prostate) greater than 100 µM. For the same molecule, the TGI (SNB-75 CNS) was greater than 100 µM, the TGI (UACC-257 melanoma) was greater than 100 µM and the TGI (NCI-H522 lung) was greater than 100 µM. It also gave a TGI (SF-295 CNS) greater than 100 µM, a TGI (ACHN renal) greater than 100 µM and a TGI (RXF 393 renal) greater than 100 µM. For the same molecule, the TGI (IGROV1 ovarian) was greater than 100 µM, the TGI (MDA-N) was greater than 100 µM and the TGI (NCI-H460 lung) was greater than 100 µM. It also gave a TGI (KM12 colon) greater than 100 µM, a TGI (COLO 205 colon) greater than 100 µM and a TGI (M14 melanoma) greater than 100 µM. The TGI (SK-OV-3 ovarian) was greater than 100 µM, the TGI (SK-MEL-2 melanoma) was greater than 100 µM and the TGI (SK-MEL-5 melanoma) was greater than 100 µM. The TGI (LOX IMVI melanoma) was greater than 100 µM, the TGI (SW-620 colon) was greater than 100 µM and the TGI (EKVX NSCLC) was greater than 100 µM. It also gave a TGI (MDA-MB-231 breast) greater than 100 µM, a TGI (PC-3 prostate) greater than 100 µM and a TGI (OVCAR-5 ovarian) greater than 100 µM. For the same molecule, the TGI (A549 NSCLC) was greater than 100 µM, the TGI (CCRF-CEM leukemia) was greater than 100 µM and the TGI (SK-MEL-28 melanoma) was greater than 100 µM.

In the case of CN(CCCNC(=O)c1nn(-c2ccc(Cl)cc2Cl)c2c1ccc1ccccc12)CCCNC(=O)c1nn(-c2ccc(Cl)cc2Cl)c2c1ccc1ccccc12, the TGI (K-562 leukemia) is reported as 2.83 µM, the TGI (MALME-3M melanoma) is reported as 3.58 µM and the TGI (OVCAR-3 ovarian) is reported as 3.14 µM. The TGI (HS 578T breast) was 3.18 µM, the TGI (NCI-H226 lung) was 4.86 µM and the TGI (NCI-H23 lung) was 3.26 µM. It also gave a TGI (SR leukemia) of 1.58 µM, a TGI (786-0 renal) of 2.95 µM and a TGI (SN12C renal) of 3.14 µM. The TGI (HL-60(TB) leukemia) was 2.1 µM, the TGI (MDA-MB-435) was 3.23 µM and the TGI (MOLT-4 leukemia) was 3.63 µM. For the same molecule, the TGI (T-47D breast) was 3.73 µM, the TGI (UACC-62 melanoma) was 3.03 µM and the TGI (HCC-2998 colon) was 2.91 µM. For the same molecule, the TGI (OVCAR-4 ovarian) was 3.21 µM, the TGI (HOP-92 NSCLC) was 3.52 µM and the TGI (SF-539 CNS) was 3.47 µM. For the same molecule, the TGI (NCI/ADR-RES ovarian) was 3.26 µM, the TGI (HT29 colon) was 3.04 µM and the TGI (A498 renal) was 2.77 µM. For the same molecule, the TGI (RPMI-8226 leukemia) was 4.36 µM, the TGI (DU-145 prostate) was 3.18 µM and the TGI (MCF7 breast) was 2.9 µM. The TGI (SNB-75 CNS) was 3.18 µM, the TGI (UACC-257 melanoma) was 3.26 µM and the TGI (NCI-H522 lung) was 2.83 µM. It also gave a TGI (SF-295 CNS) of 3.06 µM, a TGI (U251 CNS) of 3.07 µM and a TGI (ACHN renal) of 3.02 µM. For the same molecule, the TGI (RXF 393 renal) was 3.12 µM, the TGI (IGROV1 ovarian) was 3.2 µM and the TGI (MDA-N) was 3.18 µM. It also gave a TGI (HCT-116 colon) of 3.07 µM, a TGI (NCI-H460 lung) of 3.51 µM and a TGI (KM12 colon) of 3.26 µM. For the same molecule, the TGI (COLO 205 colon) was 3.71 µM, the TGI (HOP-62 NSCLC) was 3.31 µM and the TGI (CAKI-1 renal) was 3.05 µM. The TGI (M14 melanoma) was 3.04 µM, the TGI (SK-OV-3 ovarian) was 3.49 µM and the TGI (SK-MEL-2 melanoma) was 3.09 µM. It also gave a TGI (SF-268 CNS) of 3.22 µM, a TGI (TK-10 renal) of 3.41 µM and a TGI (SK-MEL-5 melanoma) of 3.42 µM. It also gave a TGI (LOX IMVI melanoma) of 3.2 µM, a TGI (EKVX NSCLC) of 3.29 µM and a TGI (MDA-MB-231 breast) of 3.23 µM. The TGI (PC-3 prostate) was 3.08 µM, the TGI (SNB-19 CNS) was 2.89 µM and the TGI (HCT-15 colon) was 3.24 µM. It also gave a TGI (OVCAR-5 ovarian) of 3.57 µM, a TGI (A549 NSCLC) of 3.11 µM and a TGI (CCRF-CEM leukemia) of 5.7 µM.
